{"source": "ChEMBL document CHEMBL3885861", "about": "“Open TG-GATES”", "species_on_record": "Rattus norvegicus", "assay": "Open TG-GATES - Regimen: Single", "type": "toxicity, organism-based, Sprague-Dawley", "design": "regimen Single, gender Male, age 6 weeks", "conditions": "in vivo, po, 2000 mg/kg, route gavage, dose level High; for APTT / Bas / Eos / Fbg / Hb / Ht / Lym / MCH / MCHC / MCV / Mono / Neu / PT / Plat / RBC / Ret / WBC: tissue Blood; for KIDNEY_L / KIDNEY_R / KIDNEY_TOTAL: tissue Kidney; for LIVER: tissue Liver; for A/G / ALP / ALT / AST / BUN / CRE / Ca / Cl / DBIL / GLC / IP / K / LDH / Na / PL / RALB / TBIL / TC / TG / TP / gamma-GTP: tissue Plasma"}
{"smiles": "CCN1CCCC1CNC(=O)c1cc(S(N)(=O)=O)ccc1OC", "note": "(stereo unspecified) [SULPIRIDE]", "values": [{"measurement": "TERMINAL_BW", "setting": "3 h", "result": 201.8, "unit": "g"}, {"measurement": "APTT", "setting": "3 h", "result": 18.6, "unit": "s"}, {"measurement": "Bas", "setting": "3 h", "result": 0, "unit": "%"}, {"measurement": "Eos", "setting": "3 h", "result": 0.6, "unit": "%"}, {"measurement": "Fbg", "setting": "3 h", "result": 244.2, "unit": "mg/dL"}, {"measurement": "Hb", "setting": "3 h", "result": 12.7, "unit": "g/dL"}, {"measurement": "Ht", "setting": "3 h", "result": 39.6, "unit": "%"}, {"measurement": "Lym", "setting": "3 h", "result": 82, "unit": "%"}, {"measurement": "MCH", "setting": "3 h", "result": 21, "unit": "pg"}, {"measurement": "MCHC", "setting": "3 h", "result": 32.2, "unit": "%"}, {"measurement": "MCV", "setting": "3 h", "result": 65.4, "unit": "fL"}, {"measurement": "Mono", "setting": "3 h", "result": 3.2, "unit": "%"}, {"measurement": "Neu", "setting": "3 h", "result": 13, "unit": "%"}, {"measurement": "PT", "setting": "3 h", "result": 13.9, "unit": "s"}, {"measurement": "Plat", "setting": "3 h", "result": 117.9, "unit": "x10_4/uL"}, {"measurement": "RBC", "setting": "3 h", "result": 606.4, "unit": "x10_4/ul"}, {"measurement": "Ret", "setting": "3 h", "result": 7.7, "unit": "%"}, {"measurement": "WBC", "setting": "3 h", "result": 82.3, "unit": "x10_2/uL"}, {"measurement": "KIDNEY_L", "setting": "3 h", "result": 0.9, "unit": "g"}, {"measurement": "KIDNEY_R", "setting": "3 h", "result": 0.9, "unit": "g"}, {"measurement": "KIDNEY_TOTAL", "setting": "3 h", "result": 1.8, "unit": "g"}, {"measurement": "LIVER", "setting": "3 h", "result": 9, "unit": "g"}, {"measurement": "A/G", "setting": "3 h", "result": 0.9}, {"measurement": "ALP", "setting": "3 h", "result": 1446.6, "unit": "IU/L"}, {"measurement": "ALT", "setting": "3 h", "result": 42, "unit": "IU/L"}, {"measurement": "AST", "setting": "3 h", "result": 74.6, "unit": "IU/L"}, {"measurement": "BUN", "setting": "3 h", "result": 9.4, "unit": "mg/dL"}, {"measurement": "CRE", "setting": "3 h", "result": 0.2, "unit": "mg/dL"}, {"measurement": "Ca", "setting": "3 h", "result": 10.6, "unit": "mg/dL"}, {"measurement": "Cl", "setting": "3 h", "result": 105.4, "unit": "meq/L"}, {"measurement": "DBIL", "setting": "3 h", "result": 0.004, "unit": "mg/dL"}, {"measurement": "GLC", "setting": "3 h", "result": 174, "unit": "mg/dL"}, {"measurement": "IP", "setting": "3 h", "result": 8.8, "unit": "mg/dL"}, {"measurement": "K", "setting": "3 h", "result": 3.9, "unit": "meq/L"}, {"measurement": "LDH", "setting": "3 h", "result": 90.2, "unit": "IU/L"}, {"measurement": "Na", "setting": "3 h", "result": 143.4, "unit": "meq/L"}, {"measurement": "PL", "setting": "3 h", "result": 119.6, "unit": "mg/dL"}, {"measurement": "RALB", "setting": "3 h", "result": 2.3, "unit": "g/dL"}, {"measurement": "TBIL", "setting": "3 h", "result": 0.068, "unit": "mg/dL"}, {"measurement": "TC", "setting": "3 h", "result": 57.6, "unit": "mg/dL"}, {"measurement": "TG", "setting": "3 h", "result": 55, "unit": "mg/dL"}, {"measurement": "TP", "setting": "3 h", "result": 4.9, "unit": "g/dL"}, {"measurement": "gamma-GTP", "setting": "3 h", "result": 1.2, "unit": "IU/L"}, {"measurement": "TERMINAL_BW", "setting": "6 h", "result": 199.5, "unit": "g"}, {"measurement": "APTT", "setting": "6 h", "result": 17, "unit": "s"}, {"measurement": "Bas", "setting": "6 h", "result": 0, "unit": "%"}, {"measurement": "Eos", "setting": "6 h", "result": 0.8, "unit": "%"}, {"measurement": "Fbg", "setting": "6 h", "result": 273, "unit": "mg/dL"}, {"measurement": "Hb", "setting": "6 h", "result": 13, "unit": "g/dL"}, {"measurement": "Ht", "setting": "6 h", "result": 40.9, "unit": "%"}, {"measurement": "Lym", "setting": "6 h", "result": 76.6, "unit": "%"}, {"measurement": "MCH", "setting": "6 h", "result": 20.9, "unit": "pg"}, {"measurement": "MCHC", "setting": "6 h", "result": 31.9, "unit": "%"}, {"measurement": "MCV", "setting": "6 h", "result": 65.6, "unit": "fL"}, {"measurement": "Mono", "setting": "6 h", "result": 2.6, "unit": "%"}, {"measurement": "Neu", "setting": "6 h", "result": 19, "unit": "%"}, {"measurement": "PT", "setting": "6 h", "result": 13.4, "unit": "s"}, {"measurement": "Plat", "setting": "6 h", "result": 121.6, "unit": "x10_4/uL"}, {"measurement": "RBC", "setting": "6 h", "result": 623.8, "unit": "x10_4/ul"}, {"measurement": "Ret", "setting": "6 h", "result": 7.6, "unit": "%"}, {"measurement": "WBC", "setting": "6 h", "result": 63.1, "unit": "x10_2/uL"}, {"measurement": "KIDNEY_L", "setting": "6 h", "result": 0.9, "unit": "g"}, {"measurement": "KIDNEY_R", "setting": "6 h", "result": 0.9, "unit": "g"}, {"measurement": "KIDNEY_TOTAL", "setting": "6 h", "result": 1.7, "unit": "g"}, {"measurement": "LIVER", "setting": "6 h", "result": 8.1, "unit": "g"}, {"measurement": "A/G", "setting": "6 h", "result": 0.9}, {"measurement": "ALP", "setting": "6 h", "result": 1306.2, "unit": "IU/L"}, {"measurement": "ALT", "setting": "6 h", "result": 39.6, "unit": "IU/L"}, {"measurement": "AST", "setting": "6 h", "result": 74.2, "unit": "IU/L"}, {"measurement": "BUN", "setting": "6 h", "result": 7.2, "unit": "mg/dL"}, {"measurement": "CRE", "setting": "6 h", "result": 0.1, "unit": "mg/dL"}, {"measurement": "Ca", "setting": "6 h", "result": 10.5, "unit": "mg/dL"}, {"measurement": "Cl", "setting": "6 h", "result": 106.4, "unit": "meq/L"}, {"measurement": "DBIL", "setting": "6 h", "result": 0, "unit": "mg/dL"}, {"measurement": "GLC", "setting": "6 h", "result": 163.6, "unit": "mg/dL"}, {"measurement": "IP", "setting": "6 h", "result": 9.1, "unit": "mg/dL"}, {"measurement": "K", "setting": "6 h", "result": 4, "unit": "meq/L"}, {"measurement": "LDH", "setting": "6 h", "result": 92, "unit": "IU/L"}, {"measurement": "Na", "setting": "6 h", "result": 142.4, "unit": "meq/L"}, {"measurement": "PL", "setting": "6 h", "result": 133.2, "unit": "mg/dL"}, {"measurement": "RALB", "setting": "6 h", "result": 2.4, "unit": "g/dL"}, {"measurement": "TBIL", "setting": "6 h", "result": 0.07, "unit": "mg/dL"}, {"measurement": "TC", "setting": "6 h", "result": 72.2, "unit": "mg/dL"}, {"measurement": "TG", "setting": "6 h", "result": 35.2, "unit": "mg/dL"}, {"measurement": "TP", "setting": "6 h", "result": 5.2, "unit": "g/dL"}, {"measurement": "gamma-GTP", "setting": "6 h", "result": 1, "unit": "IU/L"}]}
